According to EPA's ToxValDB 9.5 (doi:10.2903/j.efsa.2006.91r):
Values after ≈ are worked out from the molar mass of the structure shown.

How the values were obtained:
[1] = tested on: Anas platyrhynchos
[2] = tested on: Aphidius rhopalosiphi; settings: acute; duration: 2 days; mortality
[3] = tested on: Apis mellifera; settings: acute; duration: 48 hours; dermal; mortality
[4] = tested on: Bird; settings: acute; oral; unspecified; mortality
[5] = tested on: Daphnia magna; settings: chronic/long-term; duration: 21 days; reproduction
[6] = tested on: Lepomis macrochirus; settings: acute; duration: 96 hours; mortality
[7] = tested on: Oryctolagus sp.; settings: acute; oral; mortality
[8] = tested on: Rattus norvegicus
[9] = tested on: Canidae; settings: chronic; duration: 1 years; oral; Dog Other; clinical signs

Row | SMILES | NOEL ([1]; acute, oral, unspecified, mortality) [mg/kg] | NOEL ([1]; reproductive) [mg/kg-day] | LC50 ([1]; short-term, oral, feed, mortality) [mg/kg-day] | LEL [2] [g/ha] | LD50 [3] [µg/piece] | LD50 [4] [mg/kg] | NOEC [5] [mg/L] | LC50 [6] [µg/mL] | LD50 [7] [mg/kg-day] | NOAEL ([8]; chronic, duration: 104 weeks, neurology) [mg/kg-day] | NOAEL ([8]; subchronic, duration: 90 days, oral, clinical chemistry) [mg/kg-day] | NOAEL [9] [mg/kg-day] | NOAEL ([8]; reproduction developmental) [mg/kg-day]
1 | CCCCN(CCCC)SN(C)C(=O)Oc1cccc2c1OC(C)(C)C2 [Carbosulfan] | 2.51 | 2.5 | 3.99 | 120 | 0.18 | 10 | 0.0032 | 0.015 (≈ 0.0394 µM) | 42.7 | 1 | 2 |  | 
2 | CNC(=O)Oc1cccc2c1OC(C)(C)C2 [Carbofuran] |  |  |  |  |  |  |  |  |  |  |  | 0.1 | 0.1
